Data: patent US4410516A, “1-N(αHydroxy-ω-aminoalkanoyl) derivatives of 5,3',4'-trideoxy- or 5,3', 4'-trideoxy-6'-N- methyl- or 5, 3', 4',6"-tetradeoxykannamyci B and production thereof” (Zaidan Hojin Biseibutsu Kagaku Kenkyu Kai, priority 1981, dated 1983)
In brackets after ≈: the same amount, converted by molar mass. Like-named read-outs stand apart in the source and are kept apart here.

Assays:
Assay type in all cases: cell-based
[1] = tested on: Pseudomonas aeruginosa No. 12; assay: Minimum inhibitory concentration, serial dilution on nutrient agar
[2] = tested on: Pseudomonas aeruginosa TI-13; assay: as above; conditions: TI13, 18 h
[3] = tested on: Escherichia coli K-12 ML 1410; assay: as above
[4] = tested on: Escherichia coli K-12 R 388; assay: as above; conditions: K12R388, 18 h
Bacillus anthracis = assay: microbe, parasite or virus in culture; conditions: 18 h
[5] = tested on: Shigella dysenteriae JS 11910; assay: Minimum inhibitory concentration, serial dilution on nutrient agar; conditions: JS11910, 18 h
[6] = tested on: Pseudomonas aeruginosa GN315; assay: as above
Providencia 2991 = assay: as above; conditions: 37° C., 18 hours incubation
[7] = tested on: Pseudomonas aeruginosa 99; assay: as above
[8] = tested on: Salmonella enteritidis 1891; assay: as above; conditions: Salmonella enterica
Escherichia coli JR255 = assay: as above; conditions: JR255, nutrient agar, 37° C., 18 hours incubation, read-out: MIC
Escherichia coli K-12 = assay: as above; conditions: K12, nutrient agar, 37° C., 18 hours incubation, read-out: MIC
Providencia Pv 16 = assay: as above; conditions: PV16, 37° C., 18 hours incubation
Shigella sonnei JS11746 = assay: as above; conditions: 37° C., 18 hours incubation
Text: (§1) The minimum inhibitory concentration (mcg/ml) of 1-N-[(S)-4-amino-2-hydroxybutyryl]-5,3',4'-trideoxykanamycin B (abbreviated as AHB-trideoxyKMB), 1-N-[(RS)-3-amino-2-hydroxypropionyl]-5,3',4'-trideoxykanamycin B (abbreviated as AHP-trideoxy-KMB) and 1-N-[(S)-4-amino-2-hydroxybutyryl]-5,3',4',6"-tetradeoxykanamycin B (abbreviated as AHB-tetradeoxyKMB) of the formula (II) according to this invention as well as of the new compound 5,3',4',6"-tetradeoxykanamycin B (abbreviated as tetradeoxyKMB) of the formula (III) according to this invention against various microorganisms were determined according to serial dilution method on a nutrient agar medium at 37° C., the estimation being made after 18 hours incubation. For comparison purpose, the minimum inhibitory concentrations of habekacin were also determined in the same manner as stated above.
(§2) The minimum inhibitory concentrations (mcg/ml) of 1-N-[(S)-4-amino-2-hydroxybutyryl]-5,3',4'-trideoxy-6'-N-methylkanamycin B (abbreviated as AHB-trideoxyMKMB), 1-N-[(RS)-3-amino-2-hydroxypropionyl]-5,3',4'-trideoxy-6'-N-methylkanamycin B (abbreviated as AHP-trideoxyMKMB) and 1-N-[(S)-5-amino-2-hydroxyvaleryl]-5,3',4'-trideoxy-6'-N-methylkanamycin B (abbreviated as AHV-trideoxyMKMB) of the formula (IV) according to this invention as well as of the new compound 5,3',4'-trideoxy-6'-N-methylkanamycin B (abbreviated as trideoxyMKMB) of the formula (V) according to this invention against various microorganisms were determined according to serial dilution method on a nutrient agar medium at 37° C., the estimation being made after 18 hours incubation. For comparison purpose, the minimum inhibitory concentrations of 1-N-[(S)-4-amino-2-hydroxybutyryl]-3',4'-dideoxykanamycin B (ie. habekacin) were also determined in the same manner as stated above.

[9] = tested on: Shigella flexneri 4b JS11811; assay: as above; conditions: 4BJS11811, 37° C., 18 hours incubation
Text: as §1, §2

[10] = tested on: Escherichia coli K-12 C 600R/35; assay: as above; conditions: K12C600R/35, 37° C., 18 hours incubation
Text: as §1, §2

[11] = tested on: Escherichia coli K-12 ML 1630; assay: as above; conditions: K12ML1630, 37° C., 18 hours incubation
Text: as §1, §2

[12] = tested on: Escherichia coli K-12 J5R 11-2; assay: as above; conditions: K12J5R112, 37° C., 18 hours incubation
Text: as §1, §2

Serratia marcescens = assay: as above; conditions: 37° C., 18 hours incubation
Sarcina lutea PCI 1001 = assay: as above; conditions: Micrococcus luteus, PCI1001; nutrient agar, 37° C., 18 hours incubation; read-out: MIC
Escherichia coli K-12 R5 = assay: as above; conditions: K12R5, 18 h
[13] = tested on: Bacillus subtilis NRRL B-558; assay: as above; conditions: NRRLB558, 37° C., 18 hours incubation
[14] = tested on: Klebsiella pneumoniae 22 #3038; assay: as above; conditions: 18 h
Escherichia coli W677 = assay: as above
[15] = tested on: Escherichia coli K-12 ML 1410 R81; assay: as above; conditions: 18 h
[16] = GN315, nutrient agar, 37° C., 18 hours incubation, read-out: MIC
[17] = W677, nutrient agar, 37° C., 18 hours incubation, read-out: MIC
[18] = Pseudomonas aeruginosa, 99, 18 h

Row | Compound | MIC [2] [µg/mL] | MIC ([3]; K12ML1410, 18 h) [µg/mL] | MIC [4] [µg/mL] | MIC (Bacillus anthracis) [µg/mL] | MIC [5] [µg/mL] | MIC [6, 16] [µg/mL] | MIC (Providencia 2991) [µg/mL] | MIC (Escherichia coli JR255) [µg/mL] | MIC (Escherichia coli K-12) [µg/mL] | MIC (Providencia Pv 16) [µg/mL] | MIC (Shigella sonnei JS11746) [µg/mL] | MIC [9] [µg/mL] | MIC [10] [µg/mL] | MIC [11] [µg/mL] | MIC [12] [µg/mL] | MIC (Serratia marcescens) [µg/mL] | MIC (Sarcina lutea PCI 1001) [µg/mL] | MIC (Escherichia coli K-12 R5) [µg/mL] | MIC [13] [µg/mL] | MIC [14] [µg/mL] | also measured
1 | C[C@H]1O[C@H](O[C@@H]2C[C@H](O[C@H]3O[C@H](CN)CC[C@H]3N)[C@@H](N)C[C@H]2NC(=O)[C@@H](O)CCN)[C@H](O)[C@@H](N)[C@@H]1O [AHB-tetradeoxyKMB, 1-N-[(S)-4-amino-2-hydroxybutyryl]-5,3',4',6"-tetradeoxykanamycin B] | 3.13 (≈ 6.01 µM) | 1.56 (≈ 3 µM) | 0.39 (≈ 0.749 µM) | < 0.2 | 1.56 (≈ 3 µM) | 100 (≈ 192 µM) | 25 (≈ 48 µM) | 0.78 (≈ 1.5 µM) | 0.78 (≈ 1.5 µM) | 25 (≈ 48 µM) | 3.13 (≈ 6.01 µM) | 1.56 (≈ 3 µM) | 0.78 (≈ 1.5 µM) | 1.56 (≈ 3 µM) | 0.78 (≈ 1.5 µM) | 25 (≈ 48 µM) | 0.78 (≈ 1.5 µM) | 50 (≈ 96 µM) | < 0.2 | 1.56 (≈ 3 µM) | MIC ([1]; NO.12, nutrient agar, 37° C., 18 hours incubation, read-out: MIC): 6.25 µg/mL (≈ 12 µM); MIC ([7]; Pseudomonas aeruginosa, 99, nutrient agar, 37° C., 18 hours incubation, read-out: MIC): 6.25 µg/mL (≈ 12 µM); MIC ([8]; 18 h): 3.13 µg/mL (≈ 6.01 µM); MIC (Escherichia coli W677; [17]): 0.78 µg/mL (≈ 1.5 µM)
2 | NCC[C@H](O)C(=O)N[C@@H]1C[C@H](N)[C@@H](O[C@H]2O[C@H](CN)CC[C@H]2N)C[C@H]1O[C@H]1O[C@H](CO)[C@@H](O)[C@H](N)[C@H]1O [AHB-trideoxyKMB, 1-N-[(S)-4-amino-2-hydroxybutyryl]-5,3',4'-trideoxykanamycin B] | 3.13 (≈ 5.83 µM) |  | 0.78 (≈ 1.45 µM) | < 0.2 | 3.13 (≈ 5.83 µM) | 25 (≈ 46.6 µM) | 6.25 (≈ 11.6 µM) | 0.39 (≈ 0.727 µM) | 0.78 (≈ 1.45 µM) | 12.5 (≈ 23.3 µM) | 3.13 (≈ 5.83 µM) | 3.13 (≈ 5.83 µM) | 0.78 (≈ 1.45 µM) | 1.56 (≈ 2.91 µM) | 0.78 (≈ 1.45 µM) | 25 (≈ 46.6 µM) | 0.39 (≈ 0.727 µM) | 100 (≈ 186 µM) | < 0.2 | 3.13 (≈ 5.83 µM) | MIC ([1]; NO.12, 18 h): 3.13 µg/mL (≈ 5.83 µM); MIC ([3]; K12ML1410, nutrient agar, 37° C., 18 hours incubation, read-out: MIC): 1.56 µg/mL (≈ 2.91 µM); MIC [15]: 1.56 µg/mL (≈ 2.91 µM); MIC [7, 18]: 3.13 µg/mL (≈ 5.83 µM); MIC ([8]; 18 h): 3.13 µg/mL (≈ 5.83 µM); MIC (Escherichia coli W677; [17]): 0.78 µg/mL (≈ 1.45 µM)
3 | CNC[C@@H]1CC[C@@H](N)[C@@H](O[C@H]2C[C@@H](O[C@H]3O[C@H](CO)[C@@H](O)[C@H](N)[C@H]3O)[C@H](NC(=O)[C@@H](O)CCN)C[C@@H]2N)O1 [AHB-trideoxyMKMB, 1-N-[(S)-4-amino-2-hydroxybutyryl]-5,3',4'-trideoxy-6'-N-methylkanamycin B] | 1.56 (≈ 2.83 µM) | 1.56 (≈ 2.83 µM) | 0.39 (≈ 0.708 µM) | < 0.2 | 1.56 (≈ 2.83 µM) |  | 12.5 (≈ 22.7 µM) | 0.78 (≈ 1.42 µM) | 0.78 (≈ 1.42 µM) | 6.25 (≈ 11.4 µM) | 3.13 (≈ 5.68 µM) | 0.78 (≈ 1.42 µM) | 1.56 (≈ 2.83 µM) | 1.56 (≈ 2.83 µM) | 1.56 (≈ 2.83 µM) | 6.25 (≈ 11.4 µM) | 0.39 (≈ 0.708 µM) | 3.13 (≈ 5.68 µM) | < 0.2 | 1.56 (≈ 2.83 µM) | MIC ([1]; NO.12, 18 h): 1.56 µg/mL (≈ 2.83 µM); MIC ([6]; GN315, 18 h): 3.13 µg/mL (≈ 5.68 µM); MIC [15]: 1.56 µg/mL (≈ 2.83 µM); MIC [7, 18]: 3.13 µg/mL (≈ 5.68 µM); MIC ([8]; nutrient agar, 37° C., 18 hours incubation, read-out: MIC): 0.78 µg/mL (≈ 1.42 µM); MIC (Escherichia coli W677; W677, 18 h): 1.56 µg/mL (≈ 2.83 µM)
